In one data set the target is T1, ATR enzyme (Homo sapiens, UniProt Q13535).
T1 construct: purchased Eurofins Pharma Discovery Services 14-953-M
The data set can be described thus: Inhibitory effect on ATR enzyme (phospho-p53 HTRF). It counts as biochemical. The note with it: for IC50: 1 nM ATR enzyme, 50 nM P53 protein, 7.435 μM ATP, 2 h room temperature, read-out: IC50 for ATR enzyme inhibition; for Maximum inhibition (%) of ATR enzyme: compound serially 3-fold diluted from 1 μM. From the text:
The following method was used to determine the inhibitory effect of the compounds disclosed herein on ATR enzyme. The experimental methodology is briefly described as follows:
• 1. ATR enzyme (Eurofins Pharma Discovery Services, 14-953-M) • 2. GST-tag P53 protein (Eurofins Pharma Discovery Services, 14-952-M) • 3. 384-well plate (Thermo Scientific, 267462) • 4. U-shaped bottom 96-well plate (Corning, 3795) • 5. MAb Anti-phospho p53-Eu cryptate (Cisbio, 61P08KAE) • 6. MAb Anti GST-d2 (Cisbio, 61GSTDLF) • 7. ATP solution (Promega, V916B) • 8. EDTA (Thermo Scientific, AM9260G) • 9. HEPES (Gibco, 15630-080) • 10. Microplate reader (BMG, PHERAsta)
1 nM ATR enzyme, 50 nM P53 protein, 7.435 μM ATP and small molecule compounds of different concentrations (serially 3-fold diluted from 1 μM to the 11th concentration) were mixed and incubated at room temperature for 2 h. A terminating buffer (12.5 mM HEPES, 250 mM EDTA) was added. The mixture was well mixed before 0.42 ng/well of mAb anti-phospho p53-Eu cryptate and 25 ng/well of mAb anti GST-d2 were added. The mixture was incubated overnight at room temperature, and the fluorescence signals at 620 nm and 665 nm were detected using a PHERAstar system. Data were processed using GraphPad software.
On the technique in general: Time-resolved FRET reads energy transfer from a long-lived donor to a nearby acceptor.

For a further data set, the system named is LoVo cells. As to the kind of experiment: LoVo cell proliferation assay (intracellular ATP content, CellTiter-Glo). The note with it: LoVo human colon cancer cells, 3 days incubation; for IC50: 72 h, read-out: IC50 for LoVo cell proliferation inhibition. The format is cell-based. From the text:
The following method evaluates the inhibitory effect of the compounds disclosed herein on the proliferation of LoVo cells via IC50 by measuring the intracellular ATP content. The experimental methodology is briefly described as follows:
• 1. LoVo, human colon cancer cells (Cobioer, Nanjing, CBP60032) • 2. Fetal bovine serum (FBS) (Gibco, 10091-148) • 3. F-12K Medium (Gibco, 21127030) • 4. CellTite-Glo reagent (Promega, G7573) • 5. 96-well cell culture plate (Corning, 3903) • 6. Pancreatin (Invitrogen, 25200-072) • 7. Microplate reader (BMG, PHERAstar) • 8. Cell counter (Countstar, Shanghai, IC1000)
LoVo cells were cultured in an F-12K culture medium containing 10% of FBS, and passaged twice or thrice a week in a passage ratio of 1:3 or 1:5. During passage, cells were digested by pancreatin, transferred to a centrifuge tube, and centrifuged for 3 min at 1200 rpm. The supernatant was discarded, and fresh culture medium was added to resuspend the cells. To a 96-well cell culture plate, 90 μL of the cell suspension was added at a density of 3.88×10^4 cells/mL. To peripheral wells of the 96-well plate, only 100 μL of complete medium was added. The plate was incubated in an incubator for 24 h (37° C., 5% CO2).
The test samples were diluted to 2 mM in DMSO and serially 3-fold diluted to the 10th concentration. Blank and control wells were set. 5 μL of the serially diluted test compound solutions was added to 95 μL of fresh medium. 10 μL of the medium containing the compound above was added to the plate. The plate was incubated in an incubator for 3 days (37° C., 5% CO2). 50 μL of CellTiter-Glo reagent was added into each well of the 96-well cell culture plate. The plate was let stand for 5-10 min in the dark at room temperature. The chemiluminescence signals were read by a PHERAstar system, and the data were processed by GraphPad software.
In general terms: In ATP-based viability assays light output follows the ATP content of the culture.

Data set [1] can be described thus: Pharmacokinetic study in rats after intragastric administration. It counts as in vivo. To be noted: both sexes, Sprague-Dawley (SD), rat, plasma, po, 2 mg/kg; for Vd/F: read-out: Apparent volume of distribution Vz/F; for AUC: read-out: Area under curve AUC; for CL/F: read-out: Clearance CL/F; for half-life: read-out: Half life T1/2 (converted); for Cmax: read-out: Plasma concentration Cmax; for MRT: read-out: Retention time MRT. As for the experimental part:
The plasma concentration of the compounds of Examples 1, 2 and 3 in rats after intragastric administration were measured by LC/MS/MS. The pharmacokinetic performance in rats of the compounds disclosed herein was studied and their pharmacokinetic profile was evaluated.
The compounds of Examples 1, 2 and 3.
12 healthy adult SD rats (half male and half female; purchased from Vital River) were evenly divided into 3 groups of 4.
A certain amount of the compound was added to a mixed solvent containing 5% of DMSO, 5% of Tween 80 and 90% of normal saline to obtain a colorless and clear solution.
SD rats were intragastrically administered with the compounds after fasting overnight, at a dose of 2 mg/kg and a volume of 10.0 mL/kg.
Rats were intragastrically administered with the compounds of Examples 1, 2 and 3. 0.2 mL of blood was collected from the orbit pre-dose and at 0.25, 0.5, 1.0, 2.0, 4.0, 6.0, 8.0, 11.0 and 24.0 h post-does. The blood samples were transferred to EDTA-K2kk anticoagulation vacutainers, centrifuged at 4° C. and 11000 rpm for 5 min to separate plasma. The plasma samples were stored at −20° C. The mice were fed 2 h after administration.
The plasma concentration of the compounds in rats after intragastric administration was determined: 25 μL of rat plasma at each time point post-dose was mixed with 50 μL of internal standard and 175 μL of acetonitrile; the mixture was vortexed 5 min, and centrifuged for 10 min at 4000 rpm. 1 μL of supernatant was taken for LC/MS/MS analysis.

For orientation: AUC means concentration integrated over time. One may read the MRT as a mean duration of stay, worked out from the concentration-time curve.

T1 sequence (Q13535 whole entry): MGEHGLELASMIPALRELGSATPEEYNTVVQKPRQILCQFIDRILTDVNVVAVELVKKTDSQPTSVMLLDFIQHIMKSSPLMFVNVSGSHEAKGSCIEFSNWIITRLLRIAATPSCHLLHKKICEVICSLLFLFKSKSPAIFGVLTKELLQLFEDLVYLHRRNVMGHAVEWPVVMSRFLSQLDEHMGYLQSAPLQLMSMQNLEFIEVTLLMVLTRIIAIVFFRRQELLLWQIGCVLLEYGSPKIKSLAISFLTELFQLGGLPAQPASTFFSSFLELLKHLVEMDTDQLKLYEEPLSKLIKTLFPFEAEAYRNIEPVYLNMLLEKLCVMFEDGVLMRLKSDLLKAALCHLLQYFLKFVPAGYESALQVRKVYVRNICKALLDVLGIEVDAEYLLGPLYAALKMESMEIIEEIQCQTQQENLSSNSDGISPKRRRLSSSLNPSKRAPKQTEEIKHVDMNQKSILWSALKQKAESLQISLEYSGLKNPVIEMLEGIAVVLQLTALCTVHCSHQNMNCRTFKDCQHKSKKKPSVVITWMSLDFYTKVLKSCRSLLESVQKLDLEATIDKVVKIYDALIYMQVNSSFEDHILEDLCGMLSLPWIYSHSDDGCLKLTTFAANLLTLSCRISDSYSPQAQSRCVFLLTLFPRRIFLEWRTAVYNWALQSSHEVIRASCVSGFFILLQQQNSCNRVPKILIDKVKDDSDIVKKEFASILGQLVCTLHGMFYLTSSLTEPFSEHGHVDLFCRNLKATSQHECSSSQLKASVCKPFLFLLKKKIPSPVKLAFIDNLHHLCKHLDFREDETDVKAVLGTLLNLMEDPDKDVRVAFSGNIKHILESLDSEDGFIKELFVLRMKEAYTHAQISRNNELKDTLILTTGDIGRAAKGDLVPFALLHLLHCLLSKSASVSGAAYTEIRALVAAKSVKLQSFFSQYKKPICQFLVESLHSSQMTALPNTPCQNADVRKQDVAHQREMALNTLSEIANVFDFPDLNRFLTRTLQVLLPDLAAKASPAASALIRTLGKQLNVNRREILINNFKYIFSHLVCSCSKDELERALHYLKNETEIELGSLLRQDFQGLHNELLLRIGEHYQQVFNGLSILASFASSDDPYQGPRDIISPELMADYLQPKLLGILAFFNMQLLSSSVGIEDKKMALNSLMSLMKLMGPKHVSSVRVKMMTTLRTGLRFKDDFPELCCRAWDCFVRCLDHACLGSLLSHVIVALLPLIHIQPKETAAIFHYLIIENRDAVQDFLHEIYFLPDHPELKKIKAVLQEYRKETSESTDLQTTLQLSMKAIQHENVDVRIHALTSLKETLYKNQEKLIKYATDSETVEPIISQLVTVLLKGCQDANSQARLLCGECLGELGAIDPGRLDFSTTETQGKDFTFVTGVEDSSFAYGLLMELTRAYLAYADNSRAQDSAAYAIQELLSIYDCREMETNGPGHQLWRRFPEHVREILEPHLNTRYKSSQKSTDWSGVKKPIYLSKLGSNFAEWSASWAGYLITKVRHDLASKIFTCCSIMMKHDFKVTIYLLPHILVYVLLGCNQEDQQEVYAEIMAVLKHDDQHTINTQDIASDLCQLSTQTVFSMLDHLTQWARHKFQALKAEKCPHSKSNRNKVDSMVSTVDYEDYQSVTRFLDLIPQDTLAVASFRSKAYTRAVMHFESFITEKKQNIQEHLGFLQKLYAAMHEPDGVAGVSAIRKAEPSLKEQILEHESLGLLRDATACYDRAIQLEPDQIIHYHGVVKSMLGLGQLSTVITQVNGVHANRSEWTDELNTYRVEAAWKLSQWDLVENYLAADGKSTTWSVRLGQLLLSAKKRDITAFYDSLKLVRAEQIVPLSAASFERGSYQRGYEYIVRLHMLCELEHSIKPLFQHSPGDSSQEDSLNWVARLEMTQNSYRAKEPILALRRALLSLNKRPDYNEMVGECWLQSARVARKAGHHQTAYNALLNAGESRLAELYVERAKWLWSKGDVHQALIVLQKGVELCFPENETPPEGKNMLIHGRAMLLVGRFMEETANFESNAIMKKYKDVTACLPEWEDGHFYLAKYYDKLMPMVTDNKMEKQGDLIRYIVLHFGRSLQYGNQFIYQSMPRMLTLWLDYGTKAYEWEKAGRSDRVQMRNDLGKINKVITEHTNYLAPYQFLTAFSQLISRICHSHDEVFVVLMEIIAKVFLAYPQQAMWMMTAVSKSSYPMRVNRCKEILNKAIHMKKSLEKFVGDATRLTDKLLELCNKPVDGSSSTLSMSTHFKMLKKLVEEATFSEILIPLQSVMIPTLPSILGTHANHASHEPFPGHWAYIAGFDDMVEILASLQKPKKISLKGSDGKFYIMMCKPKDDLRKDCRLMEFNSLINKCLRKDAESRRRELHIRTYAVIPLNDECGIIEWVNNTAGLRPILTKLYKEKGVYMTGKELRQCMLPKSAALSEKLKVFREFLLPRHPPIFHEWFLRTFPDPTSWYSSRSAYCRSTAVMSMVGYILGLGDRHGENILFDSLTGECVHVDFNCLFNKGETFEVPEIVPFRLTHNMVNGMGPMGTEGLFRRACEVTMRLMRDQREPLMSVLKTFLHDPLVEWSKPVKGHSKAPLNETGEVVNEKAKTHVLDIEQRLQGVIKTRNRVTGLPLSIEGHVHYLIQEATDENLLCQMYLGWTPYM
T1 sequence (Q8WXE1 whole entry partner): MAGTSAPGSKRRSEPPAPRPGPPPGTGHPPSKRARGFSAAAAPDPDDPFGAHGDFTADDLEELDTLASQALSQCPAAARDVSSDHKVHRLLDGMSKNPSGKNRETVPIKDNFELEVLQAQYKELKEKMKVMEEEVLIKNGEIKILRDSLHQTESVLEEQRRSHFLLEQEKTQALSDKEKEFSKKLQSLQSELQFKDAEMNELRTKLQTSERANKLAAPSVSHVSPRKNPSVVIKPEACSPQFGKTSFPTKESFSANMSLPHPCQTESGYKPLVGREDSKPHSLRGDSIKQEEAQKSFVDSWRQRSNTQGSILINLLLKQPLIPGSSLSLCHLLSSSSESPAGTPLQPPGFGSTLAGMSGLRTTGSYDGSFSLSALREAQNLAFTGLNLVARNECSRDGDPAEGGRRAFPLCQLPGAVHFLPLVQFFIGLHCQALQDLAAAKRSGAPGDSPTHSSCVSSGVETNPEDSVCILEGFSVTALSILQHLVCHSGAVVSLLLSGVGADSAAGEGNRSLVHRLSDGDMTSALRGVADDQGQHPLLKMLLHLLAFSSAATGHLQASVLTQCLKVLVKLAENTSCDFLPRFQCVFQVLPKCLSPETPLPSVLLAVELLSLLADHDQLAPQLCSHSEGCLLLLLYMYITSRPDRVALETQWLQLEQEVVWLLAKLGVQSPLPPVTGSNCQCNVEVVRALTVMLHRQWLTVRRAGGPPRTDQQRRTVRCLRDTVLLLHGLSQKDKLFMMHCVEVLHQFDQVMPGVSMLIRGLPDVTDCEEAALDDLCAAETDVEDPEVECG

Regarding `C[C@@H]1COCCN1c1cc(C(C)(C)C#N)c2[nH]nc(-c3cc[nH]n3)c2n1` [Example 6, (R)-2-methyl-2-(5-(3-methylmorpholinyl)-3-(1H-pyrazol-3-yl)-1H-pyrazolo[4,3-b]pyridin-7-yl)propanenitrile], on ATR enzyme, the IC50 came out at 0.003 µM and the “Maximum inhibition (%) of ATR enzyme” value was determined as 100%. Besides, in the data set with LoVo cells, the IC50 worked out at 0.055 µM and the “Maximum inhibition (%) of LoVo cell proliferation” value was found to be 95%.

For the compound `C[C@@H]1COCCN1c1cc(C(C)(C)O)c2c(n1)c(-c1cc[nH]n1)nn2C` [Comparative Example 1, (R)-2-(1-methyl-5-(3-methylmorpholinyl)-3-(1H-pyrazol-3-yl)-1H-pyrazolo[4,3-b]pyridin-7-yl)propan-2-ol, reference compound], at ATR enzyme, the IC50 was 0.073 µM and the “Maximum inhibition (%) of ATR enzyme” value was found to be 97%. Further, in the data set on LoVo cells, the IC50 was found to be 0.316 µM and the “Maximum inhibition (%) of LoVo cell proliferation” value was 92%.

For the compound `CCn1nc(-c2cc[nH]n2)c2nc(N3CCOC[C@H]3C)cc(C3(C#N)CC3)c21` [Example 5, (R)-1-(1-ethyl-5-(3-methylmorpholinyl)-3-(1H-pyrazol-3-yl)-1H-pyrazolo[4,3-b]pyridin-7-yl) cyclopropanenitrile], at ATR enzyme, the IC50 worked out at 0.008 µM and the “Maximum inhibition (%) of ATR enzyme” value was 100%. In addition, in the data set with LoVo cells, the IC50 was found to be 0.1 µM and the “Maximum inhibition (%) of LoVo cell proliferation” value is 93%.

`C[C@@H]1COCCN1c1cc(C2(C#N)CC2)c2c(n1)c(-c1cc[nH]n1)nn2C` [Example 2, (R)-1-(1-methyl-5-(3-methylmorpholinyl)-3-(1H-pyrazol-3-yl)-1H-pyrazolo[4,3-b]pyridin-7-yl)cyclopropanenitrile]: at ATR enzyme, the IC50 was 0.009 µM and the “Maximum inhibition (%) of ATR enzyme” value came out at 100%. In addition, in the data set with LoVo cells, the IC50 is 0.075 µM and the “Maximum inhibition (%) of LoVo cell proliferation” value was found to be 90%. Also, in data set [1], the Vd/F came out at 7.8 ± 6.13 L/kg, the AUC was 1.59 ± 1.39 µg·h/mL, the CL/F was 3.1 ± 2.97 L/h/kg and the half-life was 2.57 ± 1.39 h. In addition, in data set [1], the Cmax stood at 0.309 ± 0.219 µg/mL and the MRT was 3.99 ± 2.26 h.

For `C[C@@H]1COCCN1c1cc(-c2ccnn2C)c2c(n1)c(-c1cc[nH]n1)nn2C` [Example 3, (R)-3-methyl-4-(1-methyl-7-(1-methyl-1H-pyrazol-5-yl)-3-(1H-pyrazol-3-yl)-1H-pyrazolo[4,3-b]pyridin-5-yl) morpholine], on ATR enzyme, the IC50 worked out at 0.015 µM and the “Maximum inhibition (%) of ATR enzyme” value worked out at 100%. In addition, in the data set with LoVo cells, the IC50 stood at 0.124 µM and the “Maximum inhibition (%) of LoVo cell proliferation” value is 87%. In addition, in data set [1], the Vd/F was 2.44 ± 0.448 L/kg, the AUC worked out at 2.71 ± 0.807 µg·h/mL, the CL/F worked out at 0.788 ± 0.222 L/h/kg and the half-life was 2.23 ± 0.53 h. In data set [1], the Cmax came to 0.674 ± 0.0867 µg/mL and the MRT was 3.26 ± 0.67 h.

As to `CCn1nc(-c2cc[nH]n2)c2nc(N3CCOC[C@H]3C)cc(C(C)(C)C#N)c21` [Example 4, (R)-2-(1-ethyl-5-(3-methylmorpholinyl)-3-(1H-pyrazol-3-yl)-1H-pyrazolo[4,3-b]pyridin-7-yl)-2-methylpropanenitrile], on ATR enzyme, the IC50 amounted to 0.006 µM and the “Maximum inhibition (%) of ATR enzyme” value was 100%. Further, in the data set with LoVo cells, the IC50 came to 0.064 µM and the “Maximum inhibition (%) of LoVo cell proliferation” value is on record as 89%.

For the compound `C[C@@H]1COCCN1c1cc(C(C)(C)C#N)c2c(n1)c(-c1cc[nH]n1)nn2C` [Example 1, (R)-2-methyl-2-(1-methyl-5-(3-methylmorpholinyl)-3-(1H-pyrazol-3-yl)-1H-pyrazolo[4,3-b]pyridin-7-yl)propanenitrile], the IC50 in the data set on LoVo cells worked out at 0.043 µM.

For the origin of these results see patent publication US12559488B2, “Substituted morpholines as ATR kinase inhibitors” (JIANGSU HENGRUI MEDICINE CO., LTD., priority 2019, dated 2026).
